These are literature values, as cited in US12357578B2, “Ibuprofen and famotidine tablet” (APPCO PHARMA LLC, priority 2020, dated 2025).

SMILES strings stand for the structures. Where only a bound is given, the exact number is not on record here.

Turning to `CC(C)Cc1ccc(C(C)C(=O)O)cc1` (racemic) [Ibuprofen, (±)-2-(p-isobutylphenyl) propionic acid], for the setting “organic solvents such as ethanol and acetone”, the “Solubility in organic solvents (in words)” value was “readily soluble”. For the setting “water”, the Solubility in water is recorded as below 1 mg/mL and the “Solubility in water (in words)” value is “very slightly soluble”.
As for `NC(N)=Nc1nc(CSCCC(N)=NS(N)(=O)=O)cs1` [Famotidine], under “ethanol”, the “Solubility in ethanol (in words)” value is recorded as “practically insoluble”. The “Solubility in glacial acetic acid (in words)” value (glacial acetic acid) is “freely soluble”. Also, the “Solubility in methanol (in words)” value (methanol) is reported as “slightly soluble”. For the same compound, the “Solubility in water (in words)” value (water) was “very slightly soluble”.
